Structures are written as SMILES.

One data set concerns A431 cells. Put plainly: Proliferation of A431 cells in 3D matrigel. It counts as cell-based. Conditions: A431 cells in 2% BD Matrigel; 10 μM; 10 days; maximum diameter of 30 cell aggregates. On the procedure: (2) Each well of a 96-well plate was pre-coated with 30 μL BD Matrigel (trade name, Becton, Dickinson and Company). A431 cells were suspended in the 2% BD Matrigel at a concentration of 2.1×10^6 cells/mL. This cell solution (140 μL) was added with 0.17 μL of 10 mM IBS008739 stock solution in DMSO or 0.17 μL of DMSO, and used to layer the pre-coated wells, and proliferation in the 3D matrigel was observed (see FIG. 12B). 300 of A431 cells were placed in each well of Ultra Low Attachment 96-well plate, and cultured in a serum-free DMEM-F-12 medium containing 10 ng/mL FGF, 5 μg/mL insulin and 0.1% (w/v) BSA. Formation of tumor spheres was observed under the condition with 10 mM IBS008739 stock solution dissolved in DMSO so that the final concentration was 10 μM, or the condition with DMSO of the same volume (see FIG. 12C). The maximum diameter of 30 cell aggregates of 150 μm or more observed in the 3D matrigel or sphere formation condition) are measured as the size of 3D colony or sphere. The results are shown in Table 10 and FIGS. 12B and 12C. The line in the figure is 200 μm. The line and the error bar indicate the average value and the standard error, and ns refers to not significant.
Observation of the spheres and the 3D matrigel cultivation were performed by the following processes. […]

The test system of another data set is Balb/c ByJ mice. Briefly: Recovery of cardiotoxin-induced muscle damage. Type of data set: in vivo, mouse. Conditions: intraperitoneal injection of 100 mM stock on days 2, 4 and 6 after cardiotoxin; day 7. On the procedure: Experiments were conducted with mice according to procedures approved by the Institutional Animal Case and Use Committee (see FIG. 9A to 9F). For the experiments, Balb/c ByJ mice (6 weeks, female) were used. The bar in the figures is 50 μm. The line and the error bar indicate the average value and the standard error, *p<0.05, i.e refers to intramuscular injection, and i.p refers to intraperitoneal injection.
(1) Cardiotoxin was diluted to 10 μM with phosphate buffered saline (PBS). The cardiotoxin solution (100 μl) was added with 0.3 μL of DMSO, or 0.3 μL of 10 mM IBS008738 stock solution in DMSO, respectively, and the solution was injected to the anterior tibial muscles on the right and the left, respectively. Three mice were used for one experiment, and the experiment was performed twice. The mice were sacrificed at day 5. […]
(3) Observation of muscle tissues was performed by fixing the anterior tibial muscle with 4% formalin and embedding the same in paraffin or O.C.T. compound, and staining muscle sections of 5 μm with haematoxylin and eosin. Further, Pax 7 was detected with anti-Pax 7 antibody and visualized with 3,3′-diaminobenzidine. […] The number of the Pax7-positive cells and the number of the centrally nucleated muscle fibers were counted at 6 fields at 20-fold magnification. […]

With `Cc1ccc(-n2cnc(/N=C/N3CCOCC3)c2C(=O)c2ccccc2)cc1` [exemplary compound 1], the “3D colony size, average size (μm)” value in the data set on A431 cells stood at 272.30 μm. In the data set with Balb/c ByJ mice, the “number of the Pax7-positive cells compared with DMSO” value is listed as “greater” and the “number of the centrally nucleated muscle fibers compared with DMSO” value is “greater”.

These data come from patent publication US10653672B2, “Myogenesis promotor, muscle atrophy inhibitor, medical composition and TAZ activator” (National University Corporation Tokyo Medical and Dental …, priority 2014, dated 2020).
